Laboratory results from patent US4112228A, “7-(D-α-Hydroxy-2-arylacetamido)-3-(2-carboxyalkyl-2,3-dihydro-s-tri azolo-[4,3-b]pyridazin-3-on-6-ylthiomethyl)-3-cephem-4-carboxylic acids and derivatives” (priority 1977, dated 1978).
In brackets after ≈: the same amount, converted by molar mass. Where two headings read alike, the source gives them in different places.

Assays:
[1] = Nephrotoxicity test in rabbits; details: comparative test
[2] = pH of aqueous solution of the salt; assay type: physicochemical
Shig. flexneri = assay: MIC by Steers' agar dilution method; assay type: cell-based; details: Shigella flexneri, MHA; Example 10
Enterob. cloacae = assay: MIC by Steers' agar dilution method; details: MHA; Example 10
Pr. morganii = assay: MIC by Steers' agar dilution method; details: Morganella morganii, MHA, Example 10
Pr. rettgeri = assay: MIC by Steers' agar dilution method; details: Providencia rettgeri, MHA; Example 10
Shig. dysenteriae = assay: MIC by Steers' agar dilution method; details: Shigella dysenteriae, MHA; Example 10
Serr. marcescens = assay: MIC by Steers' agar dilution method; details: Serratia marcescens, MHA; Example 10
Shig. sonnei = assay: MIC by Steers' agar dilution method; assay type: cell-based; details: Shigella sonnei, MHA; Example 10
S. aureus = assay: MIC by Steers' agar dilution method; assay type: cell-based; details: Staphylococcus aureus, MHA, Example 10
Sal. typhosa = assay: MIC by Steers' agar dilution method; assay type: cell-based; details: MHA; Example 10
Pr. vulgaris = assay: MIC by Steers' agar dilution method; details: Proteus vulgaris, MHA, Example 10
B. anthracis = assay: microbe, parasite or virus in culture; assay type: cell-based; details: Bacillus anthracis, MHA; Example 10
Sal. enteritidis = assay: MIC by Steers' agar dilution method; details: Salmonella enterica, MHA, Example 10
Kl. pneumoniae = assay: MIC by Steers' agar dilution method; assay type: cell-based; details: Klebsiella pneumoniae, MHA, Example 10
E. coli = assay: MIC by Steers' agar dilution method; assay type: cell-based; details: Escherichia coli, MHA, Example 10
Ps. aeruginosa = assay: MIC by Steers' agar dilution method; details: Pseudomonas aeruginosa, MHA, Example 10
St. faecalis = assay: MIC by Steers' agar dilution method; details: Enterococcus faecalis, MHA; Example 10
Pr. mirabilis = assay: MIC by Steers' agar dilution method; details: Proteus mirabilis, MHA, Example 10

With `O=C(Cc1cccs1)N[C@@H]1C(=O)N2C(C(=O)[O-])=C(C[n+]3ccccc3)CS[C@H]12` [cephaloridine, reference compound] the Nephrotoxicity [1] was “severe nephrotoxicity”.
In the case of `O=C(O)Cn1nc2ccc(SCC3=C(C(=O)O)N4C(=O)C(NC(=O)[C@H](O)c5ccccc5)C4SC3)nn2c1=O` (stereo partly drawn) [Example 6, disodium 7-(D-mandelamido)-3-(2-carboxymethyl-2,3-dihydro-s-triazolo[4,3-b]pyridazin-3-on-6-ylthiomethyl)-3-cephem-4-carboxylylate], the “pH of the aqueous solution” value ([2]; 5% aqueous solution) is reported as 5.4.
With `O=C(O)Cn1nc2ccc(SCC3=C(C(=O)[O-])N4C(=O)C(NC(=O)[C@H](O)c5ccccc5)[C@H]4SC3)nn2c1=O.[Na+]` (stereo partly drawn) [Sodium Salt of BB-S488, sodium 7-(D-mandelamido)-3-(2-carboxymethyl-2,3-dihydro-s-triazolo[4,3-b]pyridazin-3-on-6-ylthiomethyl)-3-cephem-4-carboxylate] the “pH of the aqueous solution” value ([2]; 10% aqueous solution) was 3.6.
For `O=C(O)CCn1nc2ccc(SCC3=C(C(=O)O)N4C(=O)C(NC(=O)[C@H](O)c5ccccc5)[C@H]4SC3)nn2c1=O` (single isomer, unassigned) [BB-S 527, 7-[D(-)-Mandelamido]-3-[2-(2-carboxyethyl)-2,3-dihydro-s-triazolo-[4,3-b]pyridazin-3-on-6-ylthiomethyl]-3-cephem-4-carboxylic acid], the MIC (Shig. flexneri) was 50 µg/mL (≈ 85.2 µM), the MIC (Enterob. cloacae) was 6.3 µg/mL (≈ 10.7 µM) and the MIC (Pr. morganii; strain not given (1st of 2)) was > 100 µg/mL. It also gave an MIC (Pr. morganii; strain not named (2nd of 2)) of 0.4 µg/mL (≈ 0.682 µM), an MIC (Pr. rettgeri) of 0.2 µg/mL (≈ 0.341 µM) and an MIC (Shig. dysenteriae) of 0.025 µg/mL (≈ 0.0426 µM). For the same compound, the MIC (Serr. marcescens) was > 100 µg/mL, the MIC (Shig. sonnei) was 0.1 µg/mL (≈ 0.17 µM) and the MIC (S. aureus; BX-1633) was 3.1 µg/mL (≈ 5.28 µM). For the same compound, the MIC (S. aureus; Smith) was 1.6 µg/mL (≈ 2.73 µM), the MIC (S. aureus; strain not named) was 0.4 µg/mL (≈ 0.682 µM) and the MIC (Sal. typhosa) was 0.1 µg/mL (≈ 0.17 µM). For the same compound, the MIC (Pr. vulgaris; strain not given (1st of 2)) was 0.1 µg/mL (≈ 0.17 µM), the MIC (Pr. vulgaris; strain not named (2nd of 2)) was 12.5 µg/mL (≈ 21.3 µM) and the MIC (B. anthracis) was 0.4 µg/mL (≈ 0.682 µM). For the same compound, the MIC (Sal. enteritidis) was 0.05 µg/mL (≈ 0.0852 µM), the MIC (Kl. pneumoniae; strain not named (1st of 4)) was 6.3 µg/mL (≈ 10.7 µM) and the MIC (Kl. pneumoniae; strain not named (2nd of 4)) was 0.2 µg/mL (≈ 0.341 µM). The MIC (Kl. pneumoniae; strain not named (3rd of 4)) was 0.8 µg/mL (≈ 1.36 µM), the MIC (Kl. pneumoniae; strain not named (4th of 4)) was 0.4 µg/mL (≈ 0.682 µM) and the MIC (E. coli; ATCC8739, ATCC 8739) was 12.5 µg/mL (≈ 21.3 µM). The MIC (E. coli; BX-1373, read-out: MIC) was 6.3 µg/mL (≈ 10.7 µM), the MIC (E. coli; Juhl, read-out: MIC) was 0.4 µg/mL (≈ 0.682 µM) and the MIC (E. coli; NIHJ, read-out: MIC) was 0.4 µg/mL (≈ 0.682 µM). The MIC (E. coli; strain not named (1st of 3), read-out: MIC) was 0.1 µg/mL (≈ 0.17 µM), the MIC (E. coli; strain not named (2nd of 3), read-out: MIC) was 0.1 µg/mL (≈ 0.17 µM) and the MIC (E. coli; strain not named (3rd of 3), read-out: MIC) was 6.3 µg/mL (≈ 10.7 µM). The MIC (Ps. aeruginosa; strain not given (1st of 2)) was > 100 µg/mL, the MIC (Ps. aeruginosa; strain not named (2nd of 2)) was > 100 µg/mL and the MIC (St. faecalis) was > 100 µg/mL. For the same compound, the MIC (Pr. mirabilis; strain not given (1st of 2)) was 0.2 µg/mL (≈ 0.341 µM) and the MIC (Pr. mirabilis; strain not named (2nd of 2)) was 0.1 µg/mL (≈ 0.17 µM).
